Patent US6815214B2, “Pharmaceutical uses and synthesis of diketopiperazines” (Celltech R & D, Inc., priority 2000, dated 2004)
Where two headings read alike, the source gives them in different places.

Tests used:
CXCR2 = target: T1, CXCR2 (Homo sapiens, UniProt P25025); assay: CXCR2 radioligand binding assay with 125I labeled IL-8 (Panlabs); conditions: for inhibition at 20 µM: letter following "II", read-out: Biological Activity II (CXCR2): extent of inhibition; for IC50: read-out: IC50 (after II, CXCR2)
T1 construct: host or cells: CHO cells
T1 sequence (P25025 1-360): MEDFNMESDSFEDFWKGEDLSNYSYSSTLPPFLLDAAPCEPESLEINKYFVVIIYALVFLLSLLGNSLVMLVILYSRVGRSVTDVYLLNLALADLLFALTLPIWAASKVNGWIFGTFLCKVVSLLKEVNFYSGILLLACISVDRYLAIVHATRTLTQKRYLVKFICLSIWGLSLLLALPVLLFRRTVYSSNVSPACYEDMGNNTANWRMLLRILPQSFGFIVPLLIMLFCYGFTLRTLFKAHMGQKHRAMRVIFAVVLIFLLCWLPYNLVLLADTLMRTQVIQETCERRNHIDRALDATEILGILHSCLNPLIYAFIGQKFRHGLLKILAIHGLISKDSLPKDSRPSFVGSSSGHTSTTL
Description: This assay is a radioligand binding assay in human recombinant CHO cells with ^125I labeled IL-8 as ligand as described in The Journal of Biological Chemistry (Ahuja, S. K.; Murphy, P. M;. J. Biol. Chem. 1996, 271, 20545).

A549 cells = assay: Inhibition of TNF-α-induced apoptosis in A549 cells (crystal violet); type: cell-based; conditions: letter following "III"; inhibition at 20 μM
Description: The protocol used for determining inhibition of apoptosis in A549 cells was adopted from a system previously described (K. Last-Barney et al, J. of Immunology, 1988, 141, 527-530). Briefly, 10^5 cells in 200 μL 10% FBS/RPMI antibiotic containing culture medium were plated into 96 well round bottom culture plates and allowed to adhere for 6 hours at 37° C. in a 5% CO2 atmosphere. The media was removed and 100 μL of RPMI+1 μg/mL actinomycin-D was added to each well, followed by 100 μL of 20 μM solution of compound in 1% DMSO. This was incubated for 1 hour. […] The media was aspirated from the plates and 100 μL of 0.5% crystal violet in 20% methanol was added. After 10 minutes the plates were rinsed with water to remove excess stain, air dried, and read on a Spectramax spectrophotometer at a wavelength of 590 nm.

Row | inhibition at 20 µM (CXCR2) | IC50 (CXCR2; unit μm [sic]) | IC50 (CXCR2) | Compound | Biological Activity III (apoptosis): extent of inhibition (A549 cells)
1 | > 50% | 15 µM | – | COc1cc(OC)c(CNC(=O)Cc2ccc(CN3C(=O)[C@@H]4C[C@H](NC(=O)OCC5c6ccccc6-c6ccccc65)CN4C(=O)[C@@H]3CC(=O)O)cc2)c(OC)c1 | –
2 | > 50% | – | 25 µM | COC(=O)C[C@H]1C(=O)N2C[C@@H](NC(=O)c3cnc4ccccc4c3)C[C@H]2C(=O)N1Cc1ccc(CC(=O)NCc2c(OC)cc(OC)cc2OC)cc1 | A (A refers to >50% inhibition at 20 μM)
